From patent publication US8242054B2, “Plant growth regulator composition” (Snow Brand Seed Co., Ltd., priority 2008, dated 2012)

Key:
[1] = tested on: adzuki bean section; assay: adzuki bean root promotion assay (section immersion treatment, adventitious roots counted); type: in vivo; settings: for Relative value (%): 0/0 ppm group = 100; for Ratio to untreated group (%): untreated group = 100
Procedure: An aqueous solution of DL-phenyllactic acid (Sigma-Aldrich Japan) and L-tryptophan (Wako Pure Chemical Industries, Ltd.) was prepared so that the total concentration of the compounds was 400 ppm and adjusted to pH 7 with hydrochloric acid, and the solution was subjected to an adzuki bean root promotion assay (Itagaki et al. 2003. Biological activities and structure-activity relationship of substitution compounds of N-[2-(3-indolyl)ethyl]succinamic acid and N-[2-(1-naphthyl)ethyl]succinamic acid, derived from a new category of root-promoting substance, N-(phenethyl) succinamic acid analogs. Plant Soil 255: 67-75). The base of an adzuki section was immersed in the test solution for 72 hours, and adventitious roots generated 7 days after immersion were counted. The repetition number was 5.
To study the cooperation effect of phenyllactic acid and aromatic amino acids other than L-tryptophan, each of 1 mM of DL-phenyllactic acid (Sigma-Aldrich Japan), L-tryptophan (Wako Pure Chemical Industries, Ltd.), L-phenylalanine (Wako Pure Chemical Industries, Ltd.), and L-tyrosine (Wako Pure Chemical Industries, Ltd.), and aqueous solutions obtained by adding the amino acids to DL-phenyllactic acid were prepared, and subjected to the adzuki bean root promotion assay in the same way as in Example 1.
To compare effects of combinations of tryptophan enantiomers and phenyllactic acid enantiomers, aqueous solutions of 400 ppm of L-tryptophan, D-tryptophan (Wako Pure Chemical Industries, Ltd.), L-phenyllactic acid (Sigma-Aldrich Japan), and D-phenyllactic acid (Sigma-Aldrich Japan) were prepared. Separately, aqueous solutions of 200 ppm of each of the tryptophan enantiomers and 200 ppm of each of the […] enantiomers were prepared and subjected to the adzuki bean root promotion assay in the same way as in Example 1. […]

[2] = tested on: adzuki bean section; assay: as above; type: in vivo; settings: for Relative value (%): 0/0 ppm group = 100; for Number of roots: 72 h immersion, counted 7 days after immersion
[3] = tested on: plants; settings: background art; cited from earlier work
[4] = Table 4: each component present at 1 mM
[5] = Table 3: L-tryptophan 0 ppm, DL-phenyllactic acid 20 ppm
[6] = Table 5: single enantiomer 400 ppm
[7] = Table 3: L-tryptophan 1200 ppm, DL-phenyllactic acid 0 ppm

| Structure (SMILES) | Number of roots [1, 4] | Ratio to untreated group (%) [1, 4] | Number of roots [1, 6] | Relative value (%) [1, 6] | also measured |
| --- | --- | --- | --- | --- | --- |
| O=C(O)C(O)Cc1ccccc1 (racemic) [DL-phenyllactic acid] | 18.8 | 132% | – | – | root promoting effect (in words) ([1]; Table 1, only DL-phenyllactic acid): slight root promoting effect; Relative value (%) ([1]; Table 1: L-tryptophan 0 ppm, DL-phenyllactic acid 400 ppm): 137%; Number of roots ([1]; Table 1: L-tryptophan 0 ppm, DL-phenyllactic acid 400 ppm, 72 h immersion, counted 7 days after immersion): 22.4; Relative value (%) ([1]; Table 2: L-tryptophan 0 ppm, DL-phenyllactic acid 400 ppm): 268%; Number of roots ([1]; Table 2: L-tryptophan 0 ppm, DL-phenyllactic acid 400 ppm, 72 h immersion, counted 7 days after immersion): 32.2; Ratio to group treated with only DL-phenyllactic acid (%) ([1]; Table 4: each component present at 1 mM, 1 mM DL-phenyllactic acid only = 100): 100%; Relative value (%) [2, 5]: 107%; Number of roots [2, 5]: 11.6 |
| O=C(O)[C@@H](O)Cc1ccccc1 [D-phenyllactic acid] | – | – | 27.6 | 192% | – |
| N[C@H](Cc1c[nH]c2ccccc12)C(=O)O [D-tryptophan] | – | – | 24.2 | 168% | – |
| N[C@@H](Cc1ccccc1)C(=O)O [L-phenylalanine] | 16.6 | 117% | – | – | – |
| O=C(O)[C@@H](O)Cc1ccccc1 [L-phenyllactic acid] | – | – | 19.4 | 135% | – |
| N[C@@H](Cc1c[nH]c2ccccc12)C(=O)O [L-tryptophan] | 19.2 | 135% | 22.2 | 154% | Relative value (%) ([1]; Table 1: L-tryptophan 400 ppm, DL-phenyllactic acid 0 ppm): 113%; Number of roots ([1]; Table 1: L-tryptophan 400 ppm, DL-phenyllactic acid 0 ppm, 72 h immersion, counted 7 days after immersion): 18.6; Relative value (%) ([1]; Table 3: L-tryptophan 400 ppm, DL-phenyllactic acid 0 ppm): 98%; Number of roots ([1]; Table 3: L-tryptophan 400 ppm, DL-phenyllactic acid 0 ppm, 72 h immersion, counted 7 days after immersion): 10.6; Relative value (%) [2, 7]: 139%; Number of roots [2, 7]: 15.0 |
| N[C@@H](Cc1ccc(O)cc1)C(=O)O [L-tyrosine] | 13.6 | 96% | – | – | – |
| O=C(O)C(O)Cc1ccccc1 (stereo not shown) [phenyllactic acid, 3-phenyllactic acid] | – | – | – | – | root promoting effect on plants (in words) [3]: the effect is weak |
